EP0140154A2, “1,2,4-Triazolylpropanols, and their production and use” (SUMITOMO CHEMICAL COMPANY, LIMITED, priority 1983, dated 1985)
Counter-ions that a name gives are not always drawn.

Experiments:
Candida albicans KB-8 = assay: Antifungal activity test (in vivo), Candida albicans infection in mice; settings: DDY male mice infected i.v. with 10^7 cells; oral, total dose 20 mg/kg at 0, 5, 24 and 48 hours after infection; 10 days observation; number in brackets is the non-medicated control
Procedure: Antifungal activity test (in vivo):-Candida albicans KB-8 as pre-cultured at 30°C for 4 days was suspended in physiologically saline solution, and the suspension was intravenously injected into DDY strain
male mice of 5 weeks old, every 10 animals being grouped, through the tail vein so as to inoculate a cell number of 10^7 per animal.
The animals were orally medicated with the test compound in the form of 0.5 % methylcellulose suspension at a total dose of 20 mg per kg of the body weight 0, 5, 24 and 48 hours after the infection, and observation was continued for 10 days after the infection. The results are shown in Table 2, wherein the numeral indicates an average number of survival days of 10 animals as one group in contrast to that of the non-medicated (control) group.
For comparison, the following compounds were also tested: [drawing 6] [drawing 7]

Acute toxicity = settings: mouse, in vivo; DDY male mice, oral, 0.5 % methylcellulose suspension, seven days after medication, Probit method
Procedure: Acute toxicity:- • DDY strain male mice of 5 weeks old, every 10 mice being grouped, received orally the test compound in the form of 0.5 % methylcellulose suspension at a dose from five kinds increasing with a common ratio of 1.3, and observation on the death of animals was continued. Seven days after the medication, the LD50 value was calculated from the rate of death according to the Probit method.

[1] = Liver weight increase test; assay type: in vivo, DDY strain male mice; settings: mice infected with Candida albicans KB-8, survived animals
Excerpt: Liver weight increase test:- • Candida albicans KB-8 was intraveously injected into DDY strain male mice of 5 weeks old, every 20 animals being grouped, at a rate of […] cells per mouse. After infection, the animals were orally medicated with the test compound in the form of 0.5 % methylcellulose suspension once a day for 20 consecutive days, during which observation on the liver weight was continued.
The average liver weight in survived animals as calculated are shown in Table 5, from which it is understood that the liver weight is not increased when the compound of the invention is given at a daily dose of not more than 4 mg/kg, while the liver weight is increased when the compound of Japanese Patent Publn. (unexamined) No. 185571/83 is given at a daily dose of not less than 1 mg/kg.

[2] = test system: Aspergillus fumigatus MTU 16001; assay: Antifungal activity test (in vivo), Aspergillus fumigatus infection in mice; settings: DDY male mice infected i.v. with 2 x 10^6 cells, oral; for Survival rate at complete death of non-medicated group (%): total dose 20 mg/kg at 0, 5, 24 and 48 hours; for Average survival day(s): total dose 20 mg/kg, 10 days observation
Procedure: (§1) Antifungal activity test (in vivo):- • Aspergillus fumigatus MTU 16001 or Cryptococcus neoformans MTU 13001 as pre-cultured at 30°C for 4 days was suspended in physiologically saline solution, and the suspension was intravenously injected into DDY strain male mice of 5 weeks old (body weight, 24 - 27 g), every 10 animals being grouped, through the tail vein so as to inoculate a cell number of 2 x 10^6 per animal.
(§2) The animals were orally medicated with the test compound in the form of 0.5 % methylcellulose suspension at a total dose of 20 mg per kg of the body weight 0, 5, 24 and 48 hours after the infection, and observation was continued for 10 days after the infection. The results are shown in Table 3, wherein the numeral indicates an average number of survival days of 10 animals as one group in contrast to that of the non-medicated (control) group.

[3] = test system: Cryptococcus neoformans MTU 13001; assay: Antifungal activity test (in vivo), Cryptococcus neoformans infection in mice; settings: DDY male mice infected i.v. with 2 x 10^6 cells, oral; for Survival rate at complete death of non-medicated group (%): total dose 20 mg/kg at 0, 5, 24 and 48 hours; for Average survival day(s): total dose 20 mg/kg, 10 days observation
Procedure: as §1, §2

[4] = dose 0.5 mg/kg p.o. once a day for 20 consecutive days
[5] = dose 1.0 mg/kg p.o. once a day for 20 consecutive days
[6] = dose 2.0 mg/kg p.o. once a day for 20 consecutive days
[7] = dose 4.0 mg/kg p.o. once a day for 20 consecutive days
[8] = dose 8.0 mg/kg p.o. once a day for 20 consecutive days

With CCCCC[S+]([O-])CC(O)(Cn1cncn1)c1ccc(Cl)cc1Cl (single isomer, unassigned) [1A, 2-(2,4-dichlorophenyl)-3-n-pentylsulfinyl-l-(l,2,4-triazol-1-yl)propan-2-ol oxalate] the “Average survival days (control)” value (Candida albicans KB-8) was 9.0 (1.2) days, the LD50 at 168 h (Acute toxicity) was 1740 mg/kg and the “Average weight of liver” value [1, 4] was 1.20 g. The “Average weight of liver” value [1, 5] was 1.18 g, the “Average weight of liver” value [1, 6] was 1.15 g and the “Average weight of liver” value [1, 7] was 1.25 g. For the same compound, the “Average weight of liver” value [1, 8] was 1.60 g.
With CC(C)CC[S+]([O-])CC(O)(Cn1cncn1)c1ccc(Cl)cc1Cl (single isomer, unassigned) [3A] the “Average survival days (control)” value (Candida albicans KB-8) was 7.7 (1.2) days and the LD50 at 168 h (Acute toxicity) was greater than 2000 mg/kg.
With CCCC(C)[S+]([O-])CC(O)(Cn1cncn1)c1ccc(Cl)cc1Cl (single isomer, unassigned) [4A] the “Average survival days (control)” value (Candida albicans KB-8) was 9.2 (1.2) days and the LD50 at 168 h (Acute toxicity) was greater than 1500 mg/kg.
With CCC(CC)[S+]([O-])CC(O)(Cn1cncn1)c1ccc(Cl)cc1Cl (single isomer, unassigned) [5A] the “Average survival days (control)” value (Candida albicans KB-8) was 8.9 (1.2) days and the LD50 at 168 h (Acute toxicity) was greater than 2000 mg/kg.
For CCC(C)(C)[S+]([O-])CC(O)(Cn1cncn1)c1ccc(Cl)cc1Cl (stereo not drawn) [Compound No. 2A, 2-(2,4-dichlorophenyl)-3-tert-pentylsulfinyl-1-(1,2,4-triazol-1-yl)propan-2-ol], the “Average survival days (control)” value (Candida albicans KB-8) was 9.7 (1.2) days, the “Survival rate at complete death of non-medicated group (%)” value [2] was 70% and the “Average survival day(s)” value [2] was 311000 s. For the same compound, the “Survival rate at complete death of non-medicated group (%)” value [3] was 90%, the “Average survival day(s)” value [3] was 743000 s and the LD50 at 168 h (Acute toxicity) was 1830 mg/kg.
For CS(=O)(=O)CC(O)(Cn1cncn1)c1ccc(Cl)cc1Cl (stereo not drawn) [I, reference compound], the “Average survival days (control)” value (Candida albicans KB-8) was 9.6 (1.2) days, the “Survival rate at complete death of non-medicated group (%)” value [2] was 60% and the “Average survival day(s)” value [2] was 233000 s. The “Survival rate at complete death of non-medicated group (%)” value [3] was 80%, the “Average survival day(s)” value [3] was 674000 s and the LD50 at 168 h (Acute toxicity) was 770 mg/kg. The “Average weight of liver” value [1, 4] was 1.30 g, the “Average weight of liver” value [1, 5] was 1.50 g and the “Average weight of liver” value [1, 6] was 1.70 g. The “Average weight of liver” value [1, 7] was 1.85 g and the “Average weight of liver” value [1, 8] was 1.90 g.
In the case of CCC(C)(C)S(=O)(=O)CC(O)(Cn1cncn1)c1ccc(Cl)cc1Cl (stereo not drawn) [II, reference compound], the “Average survival days (control)” value (Candida albicans KB-8) is reported as 1.4 (1.0) days.
For CC(=O)N1CCN(c2ccc(OCC3COC(Cn4ccnc4)(c4ccc(Cl)cc4Cl)O3)cc2)CC1 (stereo not drawn) [Ketoconazole, reference compound], the “Average survival days (control)” value (Candida albicans KB-8) was 4.8 (0.8) days and the LD50 at 168 h (Acute toxicity) was 1100 mg/kg.
